# Results from patent publication US12668797B2, “Compositions and methods for treating chronic myelomonocytic leukemia” (H. Lee Moffitt Cancer Center and Research Institute, Inc., priority 2019, dated 2026).
# Key:
# [1] = tested on: myelomonocytic leukemia cell lines; assay: Apoptosis in myelomonocytic leukemia cell lines; format: cell-based, human
# human leukemic cells = assay: Differentiation markers CD11b and CD14 by flow cytometry in human leukemic cells; format: cell-based; conditions: stimulated cells, MALAT1 depleted versus control cells
# THP-1 xenografts = assay: THP-1 MALAT1 KO / WT xenografts treated with ATRA; format: in vivo, mice
# Description: Multiple MALAT1 depleted THP-1 leukemia cell line clones have been generated utilizing dual sgRNA-targeted CRISPR technology and partnered with IONIS pharmaceuticals to test clinical grade MALAT1 ASOs in a panel of cell lines. These reagents were used to evaluate the effects of MALAT1 depletion on the above cellular processes to include proliferation, cell cycle, and differentiation. […] Additionally, these models were used to test the impact of MALAT1 depletion on normal and leukemic stem cell self-renewal capacity as well as rigorously interrogated the numbers of hematopoietic stem and progenitor cells upon MALAT1 depletion. Leukemia human cell line xenograft models were used to test the in vivo consequence of MALAT1 depletion with the above CRISPR generated clones.
# Differentiation syndrome is a common serious adverse event in human leukemia patients treated with differentiating agents. It is primarily characterized by an inflammatory reaction often a result of differentiated myeloid cells accumulating in target organs, especially the lungs.
# [2] = tested on: NRAS^Q61R/+ and NRAS^Q61R/+/MALAT1^KO/KO transplanted mice; assay: ATRA treatment of primary transplants from NRAS Q61R/+ GEM model of CMML; format: in vivo; conditions: ATRA intraperitoneally
# Description: To validate the differentiation effect in vivo primary transplants were generated from NRAS^Q61R/+/MALAT1^KO/KO and NRAS^Q61R/+ followed by treatment with ATRA. […] Differentiation syndrome is a treatable but potentially fatal complication of approved therapies which induce differentiation in myeloid neoplasms hallmarked by increases in myeloid cell adhesion, invasion, and ultimately lung infiltration. There was a higher proportion of terminally differentiated cells in the lungs of NRAS^Q61R/+/MALAT1^KO/KO mice compared to controls (FIG. 8B). Further, MALAT1 depleted THP-1 cells had increased adhesion and endothelial migration compared to controls consist with an increased potential for differentiation syndrome (FIG. 8C).
# THP-1 cells = assay: Differentiation of THP-1 MALAT1 CRISPR KO cells (CD11b/CD14); format: cell-based, human; conditions: MALAT1 depleted THP-1 versus control; ATRA 1 μM for 96 h (FIG. 7C)
# Description: To confirm that MALAT1 depletion could induce differentiation in human models of leukemia, MALAT1's major transcriptional start site was deleted via CRISPR/Cas9 as previously described in several single cell derived clones of the THP-1 cell line. THP-1 cells were chosen because they were derived from a patient with acute monocytic leukemia, they harbor an NRAS mutation, and they had the highest levels of MALAT1 in our screen of myeloid cell lines.
# CMML patients = conditions: 10 CMML patients, 45mg/m^2 of ATRA daily; cited from earlier work
# [3] = tested on: acute promyelocytic leukemia (APL); conditions: ATRA based therapy in APL; cited from earlier work
SMILES,dose-dependent apoptosis ([1]; ATRA alone),apoptosis ([1]; ATRA in combination with MALAT1 depletion),"induction of apoptosis following ATRA treatment ([1]; FIG. 2, ATRA treatment)",differentiation markers CD11b and CD14 by flow cytometry upon stimulation (human leukemic cells),"differentiation syndrome (THP-1 xenografts; ATRA treated MALAT1 KO NSG xenografts, FIG. 1)","survival of xenografted mice (THP-1 xenografts; MALAT1 depleted xenografts treated with ATRA, pilot experiment)",survival of xenografted mice (THP-1 xenografts; WT xenografts treated with ATRA),differentiation markers (Gr-1/Mac-1) [2],response of differentiation markers (THP-1 cells),patients who developed differentiation syndrome (CMML patients) [patients],patients who succumbed to differentiation syndrome (CMML patients) [patients],patients with improvement in transfusion requirements (CMML patients),cure rates [3] [%]
"CC1=C(/C=C/C(C)=C/C=C/C(C)=C/C(=O)O)C(C)(C)CCC1 [ATRA, all-trans retinoic acid]",did not cause a robust dose-dependent apoptosis,induced apoptosis in a dose-dependent manner,minimal induction of apoptosis,enhanced,evidence of differentiation syndrome,succumbed one-week post-ATRA therapy,remained unaffected,statistically significant differences,more robust response,2,1,four,~95
"CCCCCCCCCCCCCC(=O)O[C@@H]1[C@@H](C)[C@@]2(O)[C@@H](C=C(CO)C[C@]3(O)C(=O)C(C)=C[C@@H]23)[C@@H]2C(C)(C)[C@]12OC(C)=O [PMA, phorbol myristate acetate]",–,–,–,enhanced,–,–,–,–,more robust response,–,–,–,–
